This is an account of results in patent US8119655B2, “Kinase inhibitors” (Takeda Pharmaceutical Company Limited, priority 2005, dated 2012).

Where only a bound is given, the exact number is not on record here.

The target in the experiment is T1, AIK (Homo sapiens, UniProt O14965).
T1 sequence (O14965 1-403): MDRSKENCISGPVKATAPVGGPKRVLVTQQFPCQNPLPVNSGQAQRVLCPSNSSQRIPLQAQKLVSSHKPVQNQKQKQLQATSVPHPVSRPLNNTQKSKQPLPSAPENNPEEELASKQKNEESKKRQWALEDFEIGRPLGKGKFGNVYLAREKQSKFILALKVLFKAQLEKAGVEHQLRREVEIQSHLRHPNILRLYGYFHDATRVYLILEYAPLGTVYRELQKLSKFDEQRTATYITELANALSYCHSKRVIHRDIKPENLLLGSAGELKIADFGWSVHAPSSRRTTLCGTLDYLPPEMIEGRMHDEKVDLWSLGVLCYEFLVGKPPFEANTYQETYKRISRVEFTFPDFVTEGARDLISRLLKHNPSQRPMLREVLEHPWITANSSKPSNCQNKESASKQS
In words: Determination of inhibition of AIK by direct fluorescence polarization (IMAP). The experiment is classed as biochemical. To be noted: FP assay, 2.5 μM ATP, 2.5 nM AIK; read-out: IC50 of Exemplified Compounds Against AIK. How it is done:
The inhibitory properties of compounds relative to AIK may be determined by the Direct Fluorescence Polarization detection method (FP) using a Greiner small volume black 384-well-plate format under the following reaction conditions: 50 mM Hepes pH 7.3, 10 mM MgCl2, 10 mM NaCl, 1 mM DTT, 0.01% Brij35, 100 nM Fluorescein-LRRASLG peptide (provided by SYNPEP), 5% DMSO, 2.5 μM ATP. Detection of the reaction product is performed by addition of IMAP binding reagent (Molecular Devices). Reaction product may be determined quantitatively by FP using an Analyst HT plate reader (Molecular Devices) with an excitation wavelength at 485 nm and emission at 530 nm and using a Fluorescein 505 dichroic mirror.
The assay reaction may be initiated as follows: 2 ul of (3×) 300 nM Fl-Peptide/7.5 uM ATP was added to each well of the plate, followed by the addition of 2 ul of (3×) inhibitor (2.5 fold serial dilutions for 11 data points for each inhibitor) containing 15% DMSO. 2 ul of (3×) 7.5 nM AIK solution may be added to initiate the reaction (final enzyme concentration was 2.5 nM for AIK). The reaction mixture may then be incubated at room temperature for 45 min, and quenched and developed by addition of 20 ul of 1 to 400 diluted IMAP binding reagent in 1× proprietary IMAP binding buffer. Fluorescence polarization readings of the resulting reaction mixtures may be measured after a 60-minute incubation at room temperature.
IC50 values may be calculated by non-linear curve fitting of the compound concentrations and fluorescent polarization values to the standard IC50 equation.
On the technique in general: In fluorescence polarisation assays a small probe gives low polarisation when free and higher when bound to something large.

A word on the IC50: it is the concentration needed to halve the response being measured. Consider `Cc1cnc2[nH]c3c(OCC4CCN(C)CC4)ccc(Cl)c3c2c1` [Compound 175, 5-chloro-3-methyl-8-((1-methylpiperidin-4-yl)methoxy)-9H-pyrido[2,3-b]indole], for which the IC50 is 50 to 100 nM.
The result for `CCS(=O)(=O)c1cccc(-c2cc(F)c(OCCN(C)C)c3[nH]c4ncc(C)cc4c23)c1` [Compound 203, 2-(5-(3-(ethylsulfonyl)phenyl)-7-fluoro-3-methyl-9H-pyrido[2,3-b]indol-8-yloxy)-N,N-dimethylethanamine] reads less than 20 nM.
Under `Cc1cnc(Nc2cc(Cl)ccc2OCC2CCN(C)CC2)c(Br)c1` [Compound 174, 3-bromo-N-(5-chloro-2-((1-methylpiperidin-4-yl)methoxy)phenyl)-5-methylpyridin-2-amine] stands less than 20 nM; under `CCS(=O)(=O)c1cccc(-c2ccc(OCC3CCN(C)CC3)c3[nH]c4ncc(Cl)cc4c23)c1` [Compound 199, 3-chloro-5-(3-(ethylsulfonyl)phenyl)-8-((1-methylpiperidin-4-yl)methoxy)-9H-pyrido[2,3-b]indole], 20 to 50 nM; under `CNS(=O)(=O)c1cccc(-c2ccc(C)c3[nH]c4ncc(C)cc4c23)c1` [Compound 15, 3-(3,8-dimethyl-9H-pyrido[2,3-b]indol-5-yl)-N-methylbenzenesulfonamide], less than 20 nM.
On to `Cc1cnc2[nH]c3c(C)c(C(=O)NCCN(C)C)cc(Cl)c3c2c1` [Compound 120, 5-chloro-N-(2-(dimethylamino)ethyl)-3,8-dimethyl-9H-pyrido[2,3-b]indole-7-carboxamide], for which the half-maximal inhibitory concentration (IC50) is greater than 100 nM.
Take `CCS(=O)(=O)c1cccc(-c2cc(NC(=O)CCN(C)C)c(OC)c3[nH]c4ncc(C)cc4c23)c1` [Compound 240, 3-(dimethylamino)-N-(5-(3-(ethylsulfonyl)phenyl)-8-methoxy-3-methyl-9H-pyrido[2,3-b]indol-7-yl)propanamide]: the IC50 is 20 to 50 nM.
As to `CCS(=O)(=O)c1cccc(-c2cnc(OCC3CCN(C)CC3)c3[nH]c4ncc(C)cc4c23)c1` [Compound 53, 5-(3-Ethanesulfonyl-phenyl)-3-methyl-8-(1-methyl-piperidin-4-ylmethoxy)-9H-dipyrido[2,3-b;4′,3′-d]pyrrole], the IC50 was less than 20 nM.
As to `CCS(=O)(=O)c1cccc(-c2ccc(OCC3CCN(C)CC3)c(I)c2)c1` [Compound 197, 4-((3′-(ethylsulfonyl)-3-iodobiphenyl-4-yloxy)methyl)-1-methylpiperidine], the IC50 was less than 20 nM.
Take `CCS(=O)(=O)c1cccc(-c2ccc(OC)c3[nH]c4ncc(Cl)cc4c23)c1` [Compound 217]: the IC50 was less than 20 nM.
The result for `CCS(=O)(=O)c1cccc(-c2cnc(NCCN(C)C)c3[nH]c4ncc(C)cc4c23)c1` [Compound 41, N′-[5-(3-Ethanesulfonyl-phenyl)-3-methyl-9H-dipyrido[2,3-b;4′,3′-d]pyrrol-8-yl]-N,N-dimethyl-ethane-1,2-diamine] reads 50 to 100 nM; that for `CCS(=O)(=O)c1cccc(-c2ccc(C)c3[nH]c4ncccc4c23)c1` [Compound 17, 5-(3-(ethylsulfonyl)phenyl)-8-methyl-9H-pyrido[2,3-b]indole], 20 to 50 nM; that for `CCOc1ncc(-c2cccc(S(=O)(=O)CC)c2)c2c1[nH]c1ncc(C)cc12` [Compound 50, 5-(3-Ethanesulfonyl-phenyl)-8-ethoxy-3-methyl-9H-dipyrido[2,3-b;4′,3′-d]pyrrole], less than 20 nM.
`COc1ccc(-c2cccc(NC(C)=O)c2)c2c1[nH]c1ncc(C)cc12` [Compound 161, N-(3-(8-methoxy-3-methyl-9H-pyrido[2,3-b]indol-5-yl)phenyl)acetamide]: the IC50 lay in the range of 50 to 100 nM.
For `CCS(=O)(=O)c1cccc(-c2cnc(C#N)c3[nH]c4ncc(C)cc4c23)c1` [Compound 48, 5-(3-Ethanesulfonyl-phenyl)-3-methyl-9H-dipyrido[2,3-b;4′,3′-d]pyrrole-8-carbonitrile], the IC50 is greater than 100 nM.
Regarding `Cc1cnc2[nH]c3c(C)c(C(=O)NCCN(C)C)cc(-c4cccc(NC(=O)C5CC5)c4)c3c2c1` [Compound 111, 5-(3-(cyclopropanecarboxamido)phenyl)-N-(2-(dimethylamino)ethyl)-3,8-dimethyl-9H-pyrido[2,3-b]indole-7-carboxamide], the IC50 is 20 to 50 nM.
With `CCS(=O)(=O)c1cccc(-c2cc(C(=O)NCCOCCO)c(C)c3[nH]c4ncc(C)cc4c23)c1` [Compound 110], the IC50 is less than 20 nM.
For `COc1ccc(Cl)cc1Nc1ncc(C)cc1Br` [Compound 154, 3-bromo-N-(5-chloro-2-methoxyphenyl)-5-methylpyridin-amine], the IC50 was less than 20 nM.
As for `CCS(=O)(=O)c1cccc(-c2cc(C(=O)NCCN(C)C)c(C)c3[nH]c4ncc(C)cc4c23)c1` [Compound 87, N-(2-(dimethylamino)ethyl)-5-(3-(ethylsulfonyl)phenyl)-3,8-dimethyl-9H-pyrido[2,3-b]indole-7-carboxamide], the IC50 was 20 to 50 nM.
